For 18 compounds, EC50 and inhibition results are on record in patent publication US7084155B2, “Chemokine receptor binding heterocyclic compounds” (AnorMED, priority 2000, dated 2006).

Holding throughout (assay type): cell-based
For experiment [1], the system named is HIV-1 NL4.3 or IIIB. Briefly: Inhibition of HIV-1 (NL4.3 or IIIB, CXCR4 using) replication in MT-4 cells, MTT viability. The settings on record: Human immunodeficiency virus 1, IIIB, MT4, concentration protecting 50% of virus-infected cells against viral cytopathicity. The procedure:
Assay for Inhibition of HIV-1 (NL4.3) Replication in MT-4 Cells Inhibition of HIV-1 NL4.3 (or IIIB, CXCR4 using) replication assays were performed as previously described (Bridger et al. J. Med. Chem. 1999, 42, 3971-3981; De […] et al. Proc. Natl. Acad. Sci, 1992, 89, 5286-5290; De […] et al. Antimicrob. Agents Chemother. 1994, 38, 668-674; Bridger et al. J. Med. Chem. 1995, 38, 366-378; Schols et al. J. Exp. Med., 1997, 186, 1383-1388). Anti-HIV activity and cytotoxicity measurements were carried out in parallel. They were based on the viability of MT-4 cells that had been infected with HIV in the presence of various concentrations of the test compounds. After the MT-4 cells were allowed to proliferate for 5 days, the number of viable cells was quantified by a tetrazolium-based colorimetric 3-(4,5-dimethylthiazol-2-yl)-2,5-diphenyltetrazolium bromide (MTT) procedure in 96-well microtrays. In all of these assays, viral input (viral multiplicity of infection, MOI) was 0.01, or 100 times the 50% cell culture infective dose (CCID50). The EC50 was defined as the concentration required to protect 50% of the virus-infected cells against viral cytopathicity.

For experiment [2], the system named is HIV-1 BaL. The experiment can be described thus: Inhibition of HIV-1 BaL (CCR5 using) replication in PHA-stimulated PBMC's, viral p24 antigen expression. The note with it: Human immunodeficiency virus 1, BAL.
Experiment [3] relates to SDF-1 induced Ca flux in SUP-T1 cells. The experiment can be described thus: Inhibition of chemokine (SDF-1) induced Ca flux measured on a FLIPR. The note with it: Homo sapiens. The procedure: Inhibition of Chemokine Induced Ca Flux Measured on a FLIPR (Molecular Devices) Loading dye: Fluo-3, AM (Molecular Probes F-1241) is dissolved in anhydrous DMSO and stored frozen in aliquots. To increase the solubility of the dye in the loading medium, 10% (w/v) pluronic acid (Molecular Probes F-127) is added to the Fluo-3 stock solution immediately before use. HBSS+20 mM Hepes buffer+0.2% BSA, pH 7.4. HBSS 10× [(w/o phenol red and sodium bicarbonate (Gibco 14 065–049)]; Hepes buffer 1M (Gibco 15 630–056), BSA (Sigma A3675). The flux buffer is vacuum-filtered and stored refrigerated for a maximum of 5 days. Before use in the experiment, the buffer is warmed at 37° C. in a waterbath. The test compounds were diluted in flux buffer to the desired concentration and added to 4 wells of a black microplate (4 parallel measurements per compound). The following control wells were used: 100% response control (no inhibition), flux buffer was added; 100% inhibition control: chemokine was added at 5-times the concentration required to induce a Ca flux. The chemokines are diluted in flux buffer to concentrations that are 4-fold higher than the desired concentrations required for stimulation of the cells (i.e. 2.5 nM for SDF-1[…] and 0.6 nM for RANTES). The chemokines were added to untreated 96-well Sero well compound plates (International Medical, Sterilin code 611F96). In the negative control well's (baseline monitoring), flux buffer is added instead of chemokine. As a positive control to check for dye loading efficiency, 20 μM digitonin (final concentration) was also included. The agonist plate was incubated in the FLIPR (37° C.) for 15–30 min. Cell Loading Protocol for Measuring Inhibition of SDF-1[…] Induced Ca Flux in SUP-T1 Cells. SUP-T1 cells were centrifuged at room temperature (RT) and re-suspended in loading medium (RPMI-1640 containing 2% FBS and 4 μM Fluo-3, AM). The cells were incubate at room temperature for 45 min. then washed twice in flux buffer then incubated in flux buffer at room temperature for 10 min. The cells were centrifuged and re-suspended in flux buffer at a density of 3×10^6 cells per mL. A 100 uL aliquot of the cell suspension (3×10^5 cells) was added to each well of a black microplate (Costar 3603), which already contains 50 uL of a solution of the test compound (at concentrations that are 3-fold higher than the desired final compound concentrations). The microplate is then gently centrifuged at room temperature. Homogeneous spreading of the cells on the bottom of the microplate wells was then confirmed with a microscope and the microplate was incubated in the FLIPR (37° C.) for 10 min. prior to testing. Fluorescence Measurements as a Function of Time on the FLIPR The FLIPR settings (camera exposure time and laser power) are adjusted to obtain initial fluorescence values between 8,000 and 10,000 units. After monitoring a 20 second-baseline, the agonist (chemokine) (50 uL) is added by automatic pipettor with black pipette tips. Fluorescence is measured simultaneously in all wells of the microplate every 2 seconds (first 2 min) and thereafter every 6 seconds (additional 2 min). The average ca-flux measured in each set of 4 identical wells (one test compound) was calculated by the FLIPR software.

As to `c1ccc(CNCc2ccc(CN(Cc3nc4ccccc4o3)C3CCCc4cccnc43)cc2)nc1` (centres unmarked) [Example 8, N-(2-pyridinylmethyl)-N′-(benzoxazol-2-ylmethyl)-N′-(5,6,7,8-tetrahydro-8-quinolinyl)-1,4-benzenedimethanamine], the EC50 in experiment [1] and in experiment [2] was less than 20 µg/mL throughout.
In turn, `Cc1ccc2nc(CN(Cc3ccc(CNCc4ccccn4)cc3)C3CCCc4cccnc43)[nH]c2c1C` (centres unmarked) [Example 4, N-(2-pyridinylmethyl)-N′-(4,5-dimethyl-1-H-benzimidazol-2-ylmethyl)-N′-(5,6,7,8-tetrahydro-8-quinolinyl)-1,4-benzenedimethanamine] had an inhibition at 20 µg/mL in experiment [3] of more than 20%. Besides, in experiment [1], the EC50 was less than 20 µg/mL.
The compound `Cc1cccc2nc(CN(Cc3ccc(CNCc4ccccn4)cc3)C3CCCc4cccnc43)[nH]c12` (centres unmarked) [Example 20, N-(2-pyridinylmethyl)-N′-(4-methylbenzimidazol-2-ylmethyl)-N′-(5,6,7,8-tetrahydro-8-quinolinyl)-1,4-benzenedimethanamine] gave an inhibition at 20 µg/mL in experiment [3] of more than 20%. This compound returned an EC50 in experiment [1] of less than 20 µg/mL.
On to `Cc1ccc2nc(CN(Cc3ccc(CNCc4ccccn4)cc3)C3CCCc4cccnc43)oc2c1` (centres unmarked) [Example 17, N-(2-pyridinylmethyl)-N′-(6-methylbenzoxazol-2-ylmethyl)-N′-(5,6,7,8-tetrahydro-8-quinolinyl)-1,4-benzenedimethanamine], for which the EC50 in experiment [1] and in experiment [2] was less than 20 µg/mL throughout.
Consider `c1ccc(CNCc2ccc(CN(Cc3ncc(-c4ccc5c(c4)CCCC5)[nH]3)C3CCCc4cccnc43)cc2)nc1` (centres unmarked) [Example 32, N-(2-Pyridinylmethyl)-N′-[5-(5,6,7,8-tetrahydronaphthalen-2-yl)-1H-imidazol-2-ylmethyl]-N′-(5,6,7,8-tetrahydro-8-quinolinyl)-1,4-benzenedimethanamine], for which the EC50 in experiment [1] and in experiment [2] was less than 20 µg/mL throughout.
`c1ccc(CNCc2ccc(CN(CCn3cnc4ccccc43)C3CCCc4cccnc43)cc2)nc1` (centres unmarked) [Example 37, N-(2-pyridinylmethyl)-N′-[2-(benzimidazol-1-yl)eth-1-yl]-N′-(5,6,7,8-tetrahydro-8-quinolinyl)-1,4-benzenedimethanamine] gave an EC50 in experiment [2] of less than 20 µg/mL.
In the case of `Clc1ccc2[nH]c(CN(Cc3ccc(CNCc4ccccn4)cc3)C3CCCc4cccnc43)nc2c1` (centres unmarked) [Example 11, N-(2-pyridinylmethyl)-N′-[5-chloro-1H-benzimidazol-2-ylmethyl]-N′-(5,6,7,8-tetrahydro-8-quinolinyl)-1,4-benzenedimethanamine], the inhibition at 20 µg/mL in experiment [3] is more than 20%. In experiment [1], the EC50 was less than 20 µg/mL.
Consider `COc1ccc(OC)c2[nH]c(CN(Cc3ccc(CNCc4ccccn4)cc3)C3CCCc4cccnc43)nc12` (centres unmarked) [Example 15, N-(2-pyridinylmethyl)-N′-[4,7-dimethoxy-1H-benzimidazol-2-ylmethyl]-N′-(5,6,7,8-tetrahydro-8-quinolinyl)-1,4-benzenedimethanamine], for which, in experiment [3], the inhibition at 20 µg/mL was more than 20%. In experiment [1], this compound came in with an EC50 of less than 20 µg/mL.
In experiment [3], `COc1ccc2nc(CN(Cc3ccc(CNCc4ccccn4)cc3)C3CCCc4cccnc43)[nH]c2c1` (centres unmarked) [Example 12, N-(2-pyridinylmethyl)-N′-[5-methoxy-1H-benzimidazol-2-ylmethyl]-N′-(5,6,7,8-tetrahydro-8-quinolinyl)-1,4-benzenedimethanamine] returned an inhibition at 20 µg/mL of more than 20%. In experiment [1], the EC50 was less than 20 µg/mL.
In experiment [3], `FC(F)(F)c1cccc2nc(CN(Cc3ccc(CNCc4ccccn4)cc3)C3CCCc4cccnc43)[nH]c12` (centres unmarked) [Example 5, N-(2-pyridinylmethyl)-N′-(4-trifluoromethyl-1-H-benzimidazol-2-ylmethyl)-N′-(5,6,7,8-tetrahydro-8-quinolinyl)-1,4-benzenedimethanamine] had an inhibition at 20 µg/mL of more than 20%. For the same compound, in experiment [1], the EC50 was less than 20 µg/mL.
Regarding `CC1(N(Cc2ccc(CNCc3ccccn3)cc2)Cc2nc3ccccc3[nH]2)CCCc2cccnc21` (centres unmarked) [Example 42, N-(2-pyridinylmethyl)-N′-(1H-benzimidazol-2-ylmethyl)-N′-(8-methyl-5,6,7,8-tetrahydro-8-quinolinyl)-1,4-benzenedimethanamine], the inhibition at 20 µg/mL in experiment [3] was more than 20%. The same compound returned an EC50 in experiment [1] of less than 20 µg/mL.
For `Oc1cccc2[nH]c(CN(Cc3ccc(CNCc4ccccn4)cc3)C3CCCc4cccnc43)nc12` (centres unmarked) [Example 7, N-(2-pyridinylmethyl)-N′-(4-hydroxy-1-H-benzimidazol-2-ylmethyl)-N′-(5,6,7,8-tetrahydro-8-quinolinyl)-1,4-benzenedimethanamine], the inhibition at 20 µg/mL in experiment [3] was more than 20%. The EC50 in experiment [1] is less than 20 µg/mL.
`Fc1ccc2nc(CN(Cc3ccc(CNCc4ccccn4)cc3)C3CCCc4cccnc43)[nH]c2c1` (centres unmarked) [Example 3, N-(2-pyridinylmethyl)-N′-(5-fluoro-1-H-benzimidazol-2-ylmethyl)-N′-(5,6,7,8-tetrahydro-8-quinolinyl)-1,4-benzenedimethanamine] displayed an inhibition at 20 µg/mL in experiment [3] of more than 20%. The EC50 in experiment [1] is less than 20 µg/mL.
`c1ccc(CNCc2ccc(CN(Cc3cc4ccccc4[nH]3)C3CCCc4cccnc43)cc2)nc1` (centres unmarked) [Example 19, N-(2-pyridinylmethyl)-N′-(indol-2-ylmethyl)-N′-(5,6,7,8-tetrahydro-8-quinolinyl)-1,4-benzenedimethanamine]: the EC50 in experiment [1] and in experiment [2] was less than 20 µg/mL in each case.
Take `c1ccc(-c2ccc(-c3cnc(CN(Cc4ccc(CNCc5ccccn5)cc4)C4CCCc5cccnc54)[nH]3)cc2)cc1` (centres unmarked) [Example 31, N-(2-Pyridinylmethyl)-N′-(4-(4-biphenyl)-1H-imidazol-2-ylmethyl)-N′-(5,6,7,8-tetrahydro-8-quinolinyl)-1,4-benzenedimethanamine]: the EC50 in experiment [1] and in experiment [2] was less than 20 µg/mL in each case.
Consider `COc1cccnc1CNCc1ccc(CN(Cc2nc3ccccc3[nH]2)C2CCCc3cccnc32)cc1` (centres unmarked) [Example 65, N-(3-methoxy-2-pyridinylmethyl)-N′-(1H-benzimidazol-2-ylmethyl)-N′-(5,6,7,8-tetrahydro-8-quinolinyl)-1,4-benzenedimethanamine], for which, in experiment [3], the inhibition at 20 µg/mL was more than 20%. This compound yielded an EC50 in experiment [1] of less than 20 µg/mL.
In experiment [3], `c1cnc2c(c1)CCCC2NCc1ccc(CN(Cc2nc3ccccc3[nH]2)C2CCCc3cccnc32)cc1` (centres unmarked) [Example 60, N-(5,6,7,8-tetrahydro-8-quinolinyl)-N′-(1H-benzimidazol-2-ylmethyl)-N′-(5,6,7,8-tetrahydro-8-quinolinyl)-1,4-benzenedimethanamine] registered an inhibition at 20 µg/mL of more than 20%. Moreover, in experiment [1], the EC50 is less than 20 µg/mL.
With `COc1c(Br)cccc1-c1cnc(CN(Cc2ccc(CNCc3ccccn3)cc2)C2CCCc3cccnc32)[nH]1` (centres unmarked) [Example 33, N-(2-Pyridinylmethyl)-N′-[5-(3-Bromo-2-methoxy-phenyl)-1H-imidazol-2-ylmethyl]-N′-(5,6,7,8-tetrahydro-8-quinolinyl)-1,4-benzenedimethanamine], the EC50 in experiment [1] and in experiment [2] was less than 20 µg/mL in each case.
